Literature values in US11013708B2, “Prevention of psychotic disorders and/or treatment of psychotic symptoms” (Orygen Youth Health Research Centre, priority 2008, dated 2021).

Experiments:
ultra-high-risk groups = conditions: risperidone and cognitive therapy for 6 months vs supportive counselling
[1] = tested on: first-episode psychosis patients; conditions: in vivo 1H-MRS

Row | Compound | efficacy of preventive intervention vs comparator (ultra-high-risk groups) | glutathione in temporal lobes [1]
1 | Cc1nc2n(c(=O)c1CCN1CCC(c3noc4cc(F)ccc34)CC1)CCCC2 [risperidone] | significantly more effective than supportive counselling at end of intervention, but not at 12-month follow-up | 
2 | CC/C=C\C/C=C\C/C=C\C/C=C\C/C=C\CCCC(=O)O [EPA, all cis (or all z) 5,8, 11, 14, 17-eicosapentanoic acid] |  | can increase glutathione
